In patent US4613505A, “Ester of flurbiprofen and emulsion containing the same” (The Green Cross Corporation, priority 1983, dated 1986):
Where two headings read alike, the source gives them in different places.

Assay: Hydrolysis in human articular synovia
Format: in vitro ADME
Conditions: for metabolised at 1 h: human, articular synovia, 60 minutes at 37° C., read-out: Hydrolysis rate
Procedure: Into 1 ml of articular synovia of a patient with rheumatoid or osteoarthritis, was added 10 ml of an acetone solution of ethyl 2-(2-fluoro-4-biphenylyl)propionate(ethyl flurbiprofen ester: compound 1) or acetoxymethyl 2-(2-fluoro-4-biphenylyl)propionate(acetoxymethyl flurbiprofen ester; compound 2) (each being contained in an equimolar amount to 50 ng of flurbiprofen), respectively, and the mixture was incubated for 60 minutes at 37° C. The concentration of flurbiprofen formed by hydrolysis was then determined by gas chromatography.

Structure (SMILES)	hydrolysis in human articular synovia (in words)	metabolised at 1 h (patient five (Rheumatoid)) [%]	metabolised at 1 h (patient four (Rheumatoid)) [%]	metabolised at 1 h (patient one (Rheumatoid)) [%]	metabolised at 1 h (patient three (Osteoarthritis)) [%]	metabolised at 1 h (patient two (Unknown)) [%]
CC(=O)OCOC(=O)C(C)c1ccc(-c2ccccc2)c(F)c1 (stereo not drawn) [Compound 2, acetoxymethyl 2-(2-fluoro-4-biphenylyl)propionate]	effectively hydrolyzed	65.7	64.1	91.3	64.7	84.4
CCOC(=O)C(C)c1ccc(-c2ccccc2)c(F)c1 (stereo not drawn) [Compound 1, ethyl 2-(2-fluoro-4-biphenylyl)propionate]	substantially not hydrolyzed	0	0	25.8	0	2
